Read-outs that look alike come from different tables or passages of the source. One block for each substance: values may come before it. Ends that are not written are not given here.
Columns and labels:
[1] = target: T1, human PCNA (Homo sapiens, UniProt P12004); assay: SPR binding of peptides to His6-tagged PCNA captured by anti-His6 antibody; settings: for Kd: Table S2, SPR, pH 7.5, T 298, This work
[2] = target: T1, human PCNA; assay: ITC, PCNA injected into peptide; format: binding
[3] = target: PCNA; set-up: method as in 4 sources, one per row (each row's own in cited_ref): ref PMID 19208623 ||| ref PMID 8876181 ||| ref PMID 24728180 ||| ref PMID 10899134; settings: SPR, cited from earlier work
[4] = target: PCNA; settings: cited from earlier work
From the text: Supplement 18_2019_3150_MOESM1_ESM.docx, table 2: Table S2: Binding affinities of curated PCNA binding proteins. | column: KD (M)

[5] = target: PCNA; set-up: method as in 11 sources, ref PMID 15576034 ||| ref PMID 10858286 ||| ref PMID 23139781 ||| ref PMID 30655288 ||| ref PMID 28621305 ||| ...; settings: ITC, cited from earlier work
[6] = SPR single-cycle kinetics, bimolecular model, 10 mM HEPES, 150 mM NaCl, 0.05% P20, pH 7.4, 25 °C
[7] = pH 7.5, T 298, ref PMID 19208623
[8] = pH 7.5, T 303, ref PMID 15576034
[9] = pH 7.5, T 279, ref PMID 23677613

T1 sequence (P12004 whole entry): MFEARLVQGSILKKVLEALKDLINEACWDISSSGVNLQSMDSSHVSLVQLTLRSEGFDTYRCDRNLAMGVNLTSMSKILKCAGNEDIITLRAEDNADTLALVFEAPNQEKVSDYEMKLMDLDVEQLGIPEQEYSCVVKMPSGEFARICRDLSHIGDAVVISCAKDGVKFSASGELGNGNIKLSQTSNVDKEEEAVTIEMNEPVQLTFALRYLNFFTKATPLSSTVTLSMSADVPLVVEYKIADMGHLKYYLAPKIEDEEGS

Kd [1]: 10.9 µM
Substance: Ac-MDRWLVKW-NH2 [APIM]

fold drop in the affinity for PCNA on mutating Q at the first position to alanine ([2]; ITC): 50 fold
Substance: Ac-RKRRATSMTDFYHSKRRL-NH2 [p21^140–157,Q144A]

fold change (increase) of affinity for PCNA on grafting p21 flanking regions to Fen1 ([2]; ITC, versus Fen1 peptide): 60 fold
Substance: Ac-RKRRQGRLDDFFHSKRRL-NH2

Kd [1]: 2.61 µM
Substance: Ac-RQSTLYSFFPKSPAL-NH2 [MSH6]

koff [1, 6]: 0.14 ± 0.0003 s⁻¹ | kon [1, 6]: 1.7e+06 ± 1e+10 M⁻¹ s⁻¹
Substance: Ac-RQTSMTDFYHSKRRL-NH2 [p21]

Kd ([2]; 10 mM HEPES, 150 mM NaCl, 1 mM EDTA, 1 mM TCEP, pH 7.4, 25 °C, one set of sites, mean of triplicates): 8.3 ± 1.9 µM
Substance: Ac-SESSQTSMTDFYHSKRRL-NH2 [S1]

Kd [1]: 44.9 µM
Substance: Ac-TQGRLDDFFKVTGSL-NH2 [FEN1]

Substance: CKRPRPEGMQTLESFFKPLTH [PolEta 694–713, literature DNA polymerase η peptide]
Kd [3, 7]: 0.4 µM

Substance: FTHFEKEKQHDIRSFFVPQPKK [ZRANB3 511–532, literature ZRANB3 PIP-box peptide]
Kd ([4]; method not given, pH 7.5, T 298, ref PMID 28621305): 4.8 µM

Substance: GKANRQVSITGFFQRK* [p66Polδ 451–466, literature peptide of DNA polymerase δ p66 subunit]
Kd [5, 8]: 15.6 µM

Substance: KDKFIRRWVHKEGFSG [FBH1 605-620, literature FBH1 peptide]
Kd [5, 9]: 0.59 µM

Substance: KQRVRVKTVPSLFQAKLD TFLWS [TRAIP 447–469, literature TRAIP peptide]
Kd ([5]; pH 7.4, T 298, ref PMID 26711499): 30.7 µM

Substance: KRRQTSMTDFYH [p21 141–152, literature p21 peptide]
Kd ([5]; pH 7, T 303, ref PMID 23139781): 0.625 µM | Kd ([5]; pH 7, T 308, ref PMID 23139781): 1.1 µM

Substance: KTSPGRSVKEEAQNLIRHFFHGRARCES [RecQ5 952-979, literature RecQ5 peptide]
Kd ([5]; pH 7.0, T 308, ref PMID 30655288): 210 µM

Substance: MDRFLVKGAQGGLLRK [ABH2 1-16, literature ABH2 APIM peptide]
Kd [5, 9]: 0.32 µM

Substance: MGRKRLITDSYPVVKRREG [p12 1-19]
Kd ([5]; pH 7.0, T 298, ref PMID 30655288): 38 µM | Kd ([4]; NMR, pH 7.0, T 308, ref PMID 30655288): 130 µM

Kd [1]: 34.1 µM
Substance: MIGQKTLYSFFTPSP [UNG2]

Substance: PANGEQLHLVNYVEDTLDSIES [ING1 4–25, literature ING1 peptide]
Kd ([4]; NMR, pH 7, T 308, ref PMID 23139781): 12500 µM

Substance: PKWQKGIGEFFR [p15 59–70, literature p15(PAF) peptide]
Kd ([5]; pH 7, T 308, ref PMID 25762514): 83 µM

Substance: PRPEGMQTLESFFKPLTH* [PolEta 696–713, literature DNA polymerase η peptide]
Kd ([5]; pH 7.4, T 298, ref PMID 26903512): 11 µM

Substance: QHGKKDSKITDHFMRLPKA [PARG 402–420, literature PARG peptide]
Kd ([5]; pH 7.4, T 298, ref PMID 28934471): 3.3 µM

Substance: QVRRQSLASKHGSDITRFLVKK [ZRANB3 1058–79, literature ZRANB3 APIM peptide]
Kd ([5]; pH not given, T 298, ref PMID 28621305): 9.2 µM

Substance: RGQGSQRCIPEFFLAGKQPCTN [FBH1 52–72, literature FBH1 peptide]
Kd [5, 9]: 0.25 µM

Substance: RQGSTQGRLDDFFKVTGSLSSA [FEN1 332–353, literature FEN1 peptide]
Kd [5, 8]: 59 µM

Substance: SKSRQGSTQGRLDDFF [FEN1 329–344, literature FEN1 peptide]
Kd ([3]; pH 7.4, T not given, ref PMID 24728180): 0.0846 µM

Substance: SQGRKRRQTSMTDFYHSKRR [p21 137–156, literature p21 peptide]
Kd [3, 7]: 0.065 µM

Substance: p15 1–111: full-length p15(PAF) protein, literature
Kd ([5]; pH 7, T 298, ref PMID 25762514): 0.11 µM | Kd ([5]; pH 7, T 308, ref PMID 25762514): 2.5 µM

From article PMC6881253, “The PCNA interaction motifs revisited: thinking outside the PIP-box” (Cellular and Molecular Life Sciences: CMLS, 2019)
